Molecules are shown by their SMILES.

The test system of assay [1] is bone marrow derived macrophages (BMDMs). In words: Seahorse ECAR (glycolysis) in BMDMs. Type of assay: cell-based, mouse. Conditions: macrophages, NOX inhibition. The protocol: FIGS. 21A-21I show DPI stimulates glycolysis through GPR3 and β-arrestin2. FIGS. 21A-21B show DPI-stimulated glycolysis is independent of the NOX activity. […] The mean fluorescence intensity (MFI) of 2-NBDG in cells was measured by flow cytometry and normalized to DMSO controls of wildtype BMDMs. Data are presented as the mean±sd (n=3). […] ImKCs were transfected with siRNA specific for Gpr3 or a scramble siRNA as control. […] Data are presented as the mean±sd (n=4). […] Data are presented as the mean±sd (n=12). […] Abbr2^−/− ImKC were constructed by CRISPR-Cas9-mediated gene editing. […] Data are presented as the mean±sd (n=4). […]
Specific parameters for glycolytic capacity and glycolytic reserve were calculated and summarized based on two independent experiments. […]
FIGS. 29A-29B show comparison of DPI's effect on glycolysis in wild-type and Pkm^−/− BMDMs. […] ImKCs were treated with DMSO or DPI alone (500 nM) or DPI plus ERK1/2 inhibitor (SCH772984, […]) for 6 hrs and the enzymatic activities of PKM2 (c) and GAPDH (d) were measured by colorimetric assay kits (Biovision). […]
OCR and ECAR were measured in isolated tissues or cultured ImKCs using the Seahorse XFe Extracellular Flux Analyzer (Agilent). […] Glucose levels were determined using a glucose (GO) assay kit (Sigma). […] Lactate levels were determined using a lactate assay kit (Eton Bioscience). […]

The test system of another assay is PKM2. Put plainly: PKM enzymatic activity (colorimetric kit) in treated ImKCs. Conditions: ERK1/2 phosphorylation inhibited. Type of assay: cell-based, mouse. The procedure: Data are presented as the mean±sd (n=4). […] Data are presented as the mean±sd (n=6).
FIGS. 29A-29B show comparison of DPI's effect on glycolysis in wild-type and Pkm^−/− BMDMs. […] FIGS. 29C-29D show activation of PKM2 and GAPDH enzymatic activity by DPI is inhibited by ERK1/2 inhibitor. ImKCs were treated with DMSO or DPI alone (500 nM) or DPI plus ERK1/2 inhibitor (SCH772984, […]) for 6 hrs and the enzymatic activities of PKM2 (c) and GAPDH (d) were measured by colorimetric assay kits (Biovision). Data are presented as the mean±sd (n=6).
The enzymatic activities of PKM and GAPDH were measured using the pyruvate kinase activity assay kit (Biovision, #K709) and GAPDH activity assay kit (Biovision, #K680) according to the manufacturer's protocols, respectively.

Assay [2] concerns hMDMs differentiated into M2 by IL-4 plus IL-13. Particulars: differentiated macrophages.
For a further assay, the system named is M0 macrophages (hMDMs). Put plainly: Dosage response of cell shape change on M0 macrophages. Format: cell-based, human.
The test system of assay [3] is hMDMs differentiated into M2 by IL-4 plus IL-13. In words: Reprogramming screen and dosage response on M2-like differentiated macrophages.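 Further: human monocyte-derived macrophages held 24 h in 5 ng/mL IL-4 plus IL-13 before 24 h compound exposure, with cell shape measured from images in 384-well plates.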 Particulars: Homo sapiens, Macrophage, 24 h, read-out: EC.

`COc1cc(C(C)=O)ccc1O` [apocynin]: the “basal level of glycolytic activity” value in assay [1] is “significantly reduced”. Besides, the “DPI's effect on PKM2 enzymatic activity” value in the assay with PKM2 is listed as “abolished”.

Turning to `CCCCCCCCc1ccc(CCC(N)(CO)CO)cc1` [FTY720], the Category result (in assay [2]; in the assay on M0 macrophages (hMDMs) (M0 macrophages)) was “M1 (−4 for M1-activated macrophages)” in each case. Further, the “Max absolute Z-value” in the assay on M0 macrophages (hMDMs) is on record as −11.58. In addition, the EC (M1 Z-score cutoff) in assay [3] was 0.131 µM.
